# According to the METLIN SMRT retention time set (Domingo-Almenara et al. 2019):
# Assay: gradient 5% acetonitrile 3 min, to 50% in 2 min, to 85% in 15 min, held 3 min, 100 µL/min
# Details: column: Zorbax Extend-C18 2.1 x 50 mm; eluents: water / acetonitrile, 0.1% formic acid
# In short: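 Pure standards were analyzed in mixtures of ~100 molecules using HPLC coupled to a quadrupole time-of-flight mass spectrometer, in both positive and negative ionization mode. Separation used a Zorbax Extend-C18 column (2.1 × 50 mm, 1.8 μm) at 100 μL/min, with water and acetonitrile each containing 0.1% formic acid. Dead and dwell volumes were 40 μL and 900 μL, and data were collected over 3 months. Retention time was read from computationally picked adduct peaks, each inspected manually.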
row,SMILES,RP-LC retention time [s]
1,Cc1ccc(S(=O)(=O)N2CCC(CCNC(=O)NCCc3ccccc3)CC2)cc1,924
2,Cc1ccc(NC(=O)Cn2c(-c3cnccn3)nc(C)c(C)c2=O)cc1C,774
3,Cc1cc(Cl)ccc1NC(=O)c1cccn1Cc1noc(C2CC2)n1,1020
4,CCN1CCN(CCNC(=O)C2CCCN(S(=O)(=O)c3ccc4c(ccn4CC)c3)C2)CC1 (stereo not drawn),626
5,Cc1cc(C)c(S(=O)(=O)N2CCc3c(c(-c4nnc(-c5ccccc5F)o4)nn3C)C2)c(C)c1,1070
6,Cc1nn(-c2nc(-c3ccc(F)cc3)cs2)c(C)c1CC(=O)Nc1ccccc1,1150
7,O=C(c1cn(-c2cc(N3CCCCC3)ncn2)cn1)N1CCC2(CC1)OCCO2,750
8,Cc1ccccc1-c1nc(-c2cccc(-c3ccn[nH]3)c2)no1,1080
9,CC(C)N1CCn2cc(S(=O)(=O)Nc3ccccc3F)cc2C1=O,730
10,CCCc1cc(NC)n2ncc(-c3ccccc3)c2n1,683
11,Brc1ccc(CSc2nnc(-c3ccccc3)o2)cc1,1180
12,Cc1ccc(-c2ncc(C(=O)O)c(-c3ccncc3)n2)cc1,693
13,O=C(NCc1ccnc(N2CCSCC2)c1)Nc1ccccc1Cl,643
14,Cc1ccc(NC(=O)c2cccn2Cc2noc(C3CC3)n2)cc1F,1010
15,O=C(c1ccc2ccnc(N3CCN(c4ccc(Cl)cc4)CC3)c2c1)N1CCCCCC1,986
16,COc1ccc(-c2noc(Cn3nc(-c4ccccc4)ccc3=O)n2)cc1,953
17,CCc1ccc(N2CC(c3noc(-c4ccc(OC)c(OC)c4)n3)CC2=O)cc1 (stereo not drawn),925
18,Cc1cccc(NC(=O)N2CCCC2c2cc(C(C)C)on2)c1 (stereo not drawn),967
19,CCc1nc(-c2cc(S(=O)(=O)Nc3cc(F)ccc3Cl)c(C)s2)cs1,1160
20,O=C(C1CCN(S(=O)(=O)Cc2ccc(F)cc2)CC1)N1CCCC1,735
21,CCN1C(=O)c2cccnc2Sc2cc(NC(=O)c3ccc(C)c(F)c3)ccc21,896
22,COc1ccc(C(C)NC(=O)CCc2nnc3c4cc(-c5ccc(F)cc5)nn4ccn23)cc1OC (stereo not drawn),722
23,COC(=O)c1ncn2c1C(=O)N(Cc1ccccc1)C(C)(C(=O)NCc1ccccc1)C2 (stereo not drawn),715
24,O=S(=O)(c1ccc(Br)s1)N1CCN(S(=O)(=O)C2CC2)CC1,854
25,Cc1nc2ccccc2c(=O)n1Cc1noc(-c2cccc(Br)c2)n1,948
26,Cc1ccc(-c2cn3ccccc3n2)cc1NS(=O)(=O)c1ccccc1,630

row,SMILES,RP-LC retention time [s]
1,Cc1ccc(S(=O)(=O)N2CCCCC2)cc1-c1nnc(-c2ccc(Cl)cc2)o1,1250
2,CNC(=O)[C@@H]1CN(C(=O)Cn2nc(C(F)(F)F)cc2C)C[C@H]1c1n[nH]c(C)n1,618
3,CCc1ccccc1S(=O)(=O)Nc1ccc2c(c1)nc(-c1ccc(C(=O)N(CC)CC)cc1)n2C,739
4,COc1ccccc1-c1csc(-c2nnn(-c3ccc(F)cc3)c2N)n1,1070
5,CCn1c(=O)c(N2CCC(NC(=O)Nc3ccc(Br)cc3)CC2)nc2ccccc21,1020
6,CCSc1nc2ccc(NS(=O)(=O)c3ccc(F)c(C)c3)cc2s1,1060
7,O=C(c1cc(-c2ccncc2)n[nH]1)N1CCCC(C(=O)N2CCN(c3ccc(F)cc3)CC2)C1 (stereo not drawn),615
8,O=C(CSc1ccc(NC(=O)c2cccs2)nn1)Nc1ccccc1C(F)(F)F,842
9,CC1CC=C(O)C12OCC(C)(C)CO2 (stereo not drawn),736
10,O=C1C(=O)N(Cc2ccc(C(=O)N3CCCC3)cc2)CCN1Cc1ccc(F)cc1,702
11,Cc1cccc(C(=O)Nc2ccc3c(c2)Sc2ncccc2C(=O)N3C(C)C)c1,898
12,CCOC(=O)c1ccc(NC2=NS(=O)(=O)C(c3ccc(OC)cc3)=C2C)cc1,928
13,CC1CCCN(c2nn(CC(=O)Nc3ccc(C(F)(F)F)cc3)c(=O)c3ccccc23)C1 (stereo not drawn),1170
14,O=C(C1CCN(Cc2cc3ccccc3n2Cc2ccccc2)CC1)N1CCCCC1,757
15,CCOc1cccc(-c2noc(CN3C(=O)COc4ccc(C(C)(C)C)cc43)n2)c1,1380
16,Cc1cccc(-c2nc(N)n(C(=O)C(C)C)n2)c1,970
17,O=C(Nc1ccc(OCc2cc(C(=O)NC3CC3)no2)cc1)c1ccc(Cl)cc1,872
18,Cc1ccc(Nc2c(-c3ccc4c(c3)OCO4)nc3cnccn23)c(C)c1,933
19,COc1ccc(-c2cc3c(=O)n(Cc4ccc(C)cc4C)ccn3n2)cc1OC,1020
20,CS(=O)(=O)N1CCC(C(=O)NCc2csc(-c3cccs3)n2)CC1,694
21,COc1cc(N2C=C(C#N)S(=O)(=O)c3ccc(Cl)cc32)c(OC)cc1Cl,1050
22,CN1C(=O)c2cccnc2Sc2cc(NC(=O)C3(c4ccccc4)CC3)ccc21,875
23,CCOc1ccc(S(=O)(=O)N2CCC(c3noc(-c4cccc(F)c4)n3)CC2)cc1,1190
24,Cn1cnc2c(C(=O)Nc3ccc(F)cc3)nn(-c3ccc(Cl)cc3)c2c1=O,956
25,C[C@@H](NC(=O)c1cccc(Br)c1)C(=O)NCc1cscn1,665
26,CC(c1ccccc1)N1CC(=O)N(c2cccc(Cl)c2)[C@@H]2CS(=O)(=O)C[C@@H]21 (stereo partly drawn),894

# Next, values leading:
row,RP-LC retention time [s],SMILES
1,706,O=C(Cn1c(-c2cccs2)cc2cc(Cl)ccc21)NCCN1CCOCC1
2,1170,CCCc1nnsc1C(=O)Nc1nnc(-c2cc3cccc(OC)c3o2)o1
3,674,Cc1nc(CCNC(=O)[C@H]2CCCN2C(=O)c2ccc(Cl)cc2)cs1
4,1110,COc1ccccc1N1CCN(c2cc(SCC(=O)Nc3cccc(Cl)c3C)ncn2)CC1
5,678,Cn1nc(C(=O)Nc2ccccc2)c2c1CCN(C(=O)CCC(=O)NC1CC1)C2
6,799,COc1ccc(OCc2noc(CNC(=O)c3cnn(-c4ccccc4)c3C)n2)cc1
7,1320,CCOc1ccccc1NC(=O)C1CCCN(c2nc3ccccc3nc2OCC)C1 (stereo not drawn)
8,698,COc1cccc(C(=O)N2C[C@@H]3C[C@H]2C[C@@H]3NC(=O)c2cccs2)c1OC
9,838,CCCCOc1ccc(NC(=O)c2cc(=O)c3cc(C)cc(C)c3o2)c2cccnc12
10,646,CCN(CC)CCNc1ccc(CO)c2sc3ccccc3c(=O)c12
11,610,CCNc1ncnc2sc3c(c12)CCN(C(=O)CCOC)C3
12,615,COCc1ncc(C)n1CCNC(=O)Nc1ccsc1C(=O)OC
13,804,Cc1sc2ccn(C)c(=O)c2c1C(=O)NC1CCCCCC1
14,752,CCN1c2ccccc2C(=O)NC12CCN(C(=O)c1cccc(OC)c1)CC2
15,725,COc1ccc(-c2noc(C3CCCN3C(=O)c3cccnc3)n2)cc1 (stereo not drawn)
16,699,CCc1nc2sc(C)nn2c1S(=O)(=O)N1CCOCC1
17,1010,CCc1cc(C(=O)NC2CC2)nc2cc(-c3ccsc3)nn12
18,720,CCn1cc(CCNC(=O)Nc2cccc(C)c2C)c2cccnc21

row,RP-LC retention time [s],SMILES
1,790,COc1ccc(C(=O)N2CCC(c3noc(-c4cnccn4)n3)C2)cn1 (stereo not drawn)
2,1000,CCc1cc(C(=O)Nc2ccc(OC)cc2)nc2cc(-c3ccccn3)nn12
3,966,COc1ccc(N2CCN(c3ncc(S(=O)(=O)c4ccc(C)c(C)c4)c(N)n3)CC2)cc1
4,788,COc1ccccc1OCCC1CCN(C(=O)CCS(=O)(=O)c2ccc3c(c2)CCN3C(C)=O)C1 (stereo not drawn)
5,790,CCc1nnc(-c2ccc3ccn(CC(=O)NCc4cccs4)c3c2)o1
6,725,COCCN1CCn2cc(S(=O)(=O)Nc3ccc(F)cc3Cl)cc2C1=O
7,733,CCn1c(CCNC(=O)c2ccc(OC)cc2C)nc2cccnc21
8,658,COCc1nc2cccnc2n1C1CCN(C(=O)Nc2ccc3c(c2)OCO3)CC1
9,1150,CCc1sc(NC(=O)c2cc3c([nH]c2=O)CC(C)(C)CC3=O)nc1-c1ccc(C)c(C)c1
10,607,Cc1cc(C)n(-c2ccnc(N3CCC(C(=O)NCCN4CCOCC4)CC3)n2)n1
11,837,CCc1nc2cc(N3CCC(C(=O)NC(C)c4ccccc4)CC3)cnc2nc1CC (stereo not drawn)
12,634,Cc1ccc2[nH]c(=O)c(CCC(=O)NCCN3CCc4ccccc4C3)cc2c1
13,758,CCc1noc(NC(C)=O)c1-c1ccc(OC)c(S(=O)(=O)N2CCCCC2)c1
14,754,CCC(CC)NC(=O)c1c(OCC2CC2)cc(=O)n2c1CCCCC2
15,702,CCNC(=O)c1cc(N2CCCC2)nc2c(C)cccc12
16,902,COc1cc(NC(=O)C2CCN(S(=O)(=O)c3cc(-c4noc(C)n4)cs3)CC2)cc(OC)c1
17,987,COc1ccc(-c2ncc3c(n2)CCN(C(=O)Cc2ccc(OC)cc2Cl)C3)cc1
18,1040,Cc1nc(-c2csc(S(=O)(=O)N3CCCC(C(=O)Nc4ccc(Cl)cc4C)C3)c2)no1 (stereo not drawn)
